Measurements taken from US11814376B2, “Hepatitis b core protein modulators” (Assembly Biosciences, Inc., priority 2015, dated 2023).

Assays:
[1] = tested on: HBV viral load in AD38 cells; assay: Viral load production in AD38 cells, quantitative PCR of the core sequence in supernatant; assay type: cell-based; settings: 10 μM compound, 6 days at 37° C., supernatant qPCR, relative to DMSO control; for activity at 10 µM: Hepatitis B virus, 144 h, read-out: AD38 Viral Load (%) (VL with cmpd/VL in DMSO control) at 10 μM
AD38 cells = assay: Viability of AD38 cells (Promega CellTiter-Glo); assay type: cell-based; settings: 10 μM compound, 6 days, CellTiter-Glo luminescence normalized to DMSO control (100%)
Method in brief: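 AD38 cells were seeded at 50,000/well on collagen-coated plates and treated with compound added as a 10× solution in 10% DMSO for 6 days at 37° C. Viability was measured by CellTiter-Glo luminescence in tetracycline-free medium with 2% FBS and 1% DMSO, and expressed as percent of DMSO control.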

SMILES	activity at 10 µM [1] [%]	AD38 Viability Normalized Result (cmpd/DMSO %) at 10 μM (AD38 cells) [%]	AD38 Viral Load (%) (VL with cmpd/VL in DMSO control) at 10 μM [1]
CC(=O)NCCCCc1ccc(-c2ncc(CNC(=O)c3ccc4c(c3)NC(=O)c3ccccc3S4(=O)=O)s2)cc1 [compound 11057]	1	101	
O=C(NCc1cnc(-c2ccc(C#CCCN3CCOCC3)cc2)s1)c1ccc2c(c1)NC(=O)c1ccccc1S2(=O)=O [compound 11061, N-((2-(4-(4-morpholinobut-1-yn-1-yl)phenyl)thiazol-5-yl)methyl)-11-oxo-10, 11-dihydrodibenzo [b, f] [1, 4] thiazepine-8-carboxamide 5,5-dioxide]	0.9	95	
CCN(CC)CCCSc1ccc(-c2ncc(CNC(=O)c3ccc4c(c3)NC(=O)c3ccccc3S4(=O)=O)s2)cc1 [compound 11063, N-((2-(4-((3-(diethylamino)propyl)thio)phenyl)thiazol-5-yl)methyl)-11-oxo-10, 11-dihydrodibenzo [b, f] [1, 4] thiazepine-8-carboxamide 5,5-dioxide]	1.2	102	
CC(C)(C)NCCCSc1ccc(-c2ncc(CNC(=O)c3ccc4c(c3)NC(=O)c3ccccc3S4(=O)=O)s2)cc1.O=C(O)C(F)(F)F [compound 11064, N-((2-(4-((3-(tert-butylamino)propyl)thio)phenyl)thiazol-5-yl)methyl)-11-oxo-10, 11-dihydrodibenzo [b, f] [1, 4] thiazepine-8-carboxamide 5,5-dioxide TFA salt]	4.1	85	
O=C(NCc1cnc(-c2ccc(SCCCN3CCCCC3)cc2)s1)c1ccc2c(c1)NC(=O)c1ccccc1S2(=O)=O [compound 11065, 11-oxo-N-((2-(4-((3-(piperidin-1-yl)propyl)thio)phenyl)thiazol-5-yl)methyl)-10, 11-dihydrodibenzo [b, f] [1, 4] thiazepine-8-carboxamide 5,5-dioxide]	1.2	66	
O=C(NCc1cnc(-c2ccc(SCCCN3CCOCC3)cc2)s1)c1ccc2c(c1)NC(=O)c1ccccc1S2(=O)=O [compound 11066, N-((2-(4-((3-morpholinopropyl)thio)phenyl)thiazol-5-yl)methyl)-11-oxo-10, 11-dihydrodibenzo [b, f] [1, 4] thiazepine-8-carboxamide 5,5-dioxide]	0.4	104	
CC(=O)NCCCSc1ccc(-c2ncc(CNC(=O)c3ccc4c(c3)NC(=O)c3ccccc3S4(=O)=O)s2)cc1 [compound 11067, N-((2-(4-((3-acetamidopropyl)thio)phenyl)thiazol-5-yl)methyl)-11-oxo-10, 11-dihydrodibenzo [b, f] [1, 4] thiazepine-8-carboxamide 5,5-dioxide]	2.5	99	
CCN(CC)CCCOc1ccc(-c2ncc(CNC(=O)c3ccc4c(c3)NC(=O)c3ccccc3S4(=O)=O)s2)cc1 [compound 11073]	2.2	94	
Cc1c(C(=O)NCc2cnc(-n3cccn3)s2)ccc2c1NC(=O)c1ccccc1S2(=O)=O [compound 11074]		103	0.6
Cc1c(C(=O)NCc2cnc(-c3ccccn3)s2)ccc2c1NC(=O)c1ccccc1S2(=O)=O [compound 11077]	0.9	90	
O=C(NCc1cnc(C(F)(F)F)s1)c1ccc2c(c1)NC(=O)c1ccccc1N2CCO [compound 11078]	45.7	96	
N#Cc1ccc(-c2ncc(CNC(=O)c3ccc4c(c3)NC(=O)c3ccccc3N4CCO)s2)c(F)c1 [compound 11079]	3.3	102	
CC(CCN(C)C)Oc1ccc(-c2ncc(CNC(=O)c3ccc4c(c3)NC(=O)c3ccccc3S4(=O)=O)s2)cc1 (centres unmarked) [compound 11080]	1.4	84	
O=C1Nc2c(ccc(C(=O)NCc3cnc(C(F)(F)F)s3)c2Cl)S(=O)(=O)c2ccccc21 [compound 11082]	1.2	95	
N#Cc1ccc(-c2ncc(CNC(=O)c3ccc4c(c3Cl)NC(=O)c3ccccc3S4(=O)=O)s2)c(F)c1 [compound 11083]	0.8	62	
CN(C)CC(O)COc1ccc(-c2ncc(CNC(=O)c3ccc4c(c3)NC(=O)c3ccccc3S4(=O)=O)s2)cc1 (centres unmarked) [compound 11085]	3.4	88	

SMILES	activity at 10 µM [1] [%]	AD38 Viability Normalized Result (cmpd/DMSO %) at 10 μM (AD38 cells) [%]	AD38 Viral Load (%) (VL with cmpd/VL in DMSO control) at 10 μM [1]
CCN(CC)CC(O)COc1ccc(-c2ncc(CNC(=O)c3ccc4c(c3)NC(=O)c3ccccc3S4(=O)=O)s2)cc1 (centres unmarked) [compound 11086]	4.7	88	
CC(C)N(C)CC(O)COc1ccc(-c2ncc(CNC(=O)c3ccc4c(c3)NC(=O)c3ccccc3S4(=O)=O)s2)cc1 (centres unmarked) [compound 11087]	7.1	103	
CC(C)N(C)CCCOc1ccc(-c2ncc(CNC(=O)c3ccc4c(c3)NC(=O)c3ccccc3S4(=O)=O)s2)cc1 [compound 11091]	1.3	89	
CN(CCCOc1ccc(-c2ncc(CNC(=O)c3ccc4c(c3)NC(=O)c3ccccc3S4(=O)=O)s2)cc1)C1CC1 [compound 11092]	0.5	101	
CC(C)N(C)CCCCc1ccc(-c2ncc(CNC(=O)c3ccc4c(c3)NC(=O)c3ccccc3S4(=O)=O)s2)cc1 [compound 11093]	4.6	102	
CN(CCCCc1ccc(-c2ncc(CNC(=O)c3ccc4c(c3)NC(=O)c3ccccc3S4(=O)=O)s2)cc1)C1CC1 [compound 11094]	0.6	94	
CN(C)CCCCc1cnn(-c2ncc(CNC(=O)c3ccc4c(c3)NC(=O)c3ccccc3S4(=O)=O)s2)c1 [compound 11099]	3.9	90	
CCN(CC)CCCCc1cnn(-c2ncc(CNC(=O)c3ccc4c(c3)NC(=O)c3ccccc3S4(=O)=O)s2)c1 [compound 11100]	6.8	102	
CCN(CC)CCC(C)Oc1ccc(-c2ncc(CNC(=O)c3ccc4c(c3)NC(=O)c3ccccc3S4(=O)=O)s2)cc1 (centres unmarked) [compound 11101]	1.9	85	
O=C(NCc1cnc(-c2ccc(OCCCNCC(F)(F)F)cc2)s1)c1ccc2c(c1)NC(=O)c1ccccc1S2(=O)=O [compound 11102]	0.5	93	
Cl.O=C(NCc1cnc(-c2ccc(O[C@@H]3CCNC3)cc2)s1)c1ccc2c(c1)NC(=O)c1ccccc1S2(=O)=O [compound 11103, (R)-11-oxo-N-((2-(4-(pyrrolidin-3-yloxy)phenyl)thiazol-5-yl)methyl)-10, 11-dihydrodibenzo [b, f] [1, 4] thiazepine-8-carboxamide 5,5-dioxide hydrochloride]	2.5	102	
Cl.O=C(NCc1cnc(-c2ccc(OC[C@H]3CCCN3)cc2)s1)c1ccc2c(c1)NC(=O)c1ccccc1S2(=O)=O [compound 11104, (R)-11-oxo-N-((2-(4-(pyrrolidin-2-ylmethoxy)phenyl)thiazol-5-yl)methyl)-10, 11-dihydrodibenzo [b, f] [1, 4] thiazepine-8-carboxamide 5,5-dioxide hydrochloride]	9.4	97	
O=C(NCc1cnc(-c2ccc(OCCCN3CCC3)cc2)s1)c1ccc2c(c1)NC(=O)c1ccccc1S2(=O)=O [compound 11105]	1.6	95	
O=C(NCc1cnc(-c2ccc(OCCCN3CCC[C@H]3C(=O)O)cc2)s1)c1ccc2c(c1)NC(=O)c1ccccc1S2(=O)=O [compound 11106, (3-(4-(5-((5,5-dioxido-11-oxo-10, 11-dihydrodibenzo [b, f] [1, 4]thiazepine-8-carboxamido)methyl)thiazol-2-yl)phenoxy)propyl)-L-proline]	3.3	97	
O=C(NCc1cnc(-c2ccc(OCCCN3CCC(C(=O)O)C3)cc2)s1)c1ccc2c(c1)NC(=O)c1ccccc1S2(=O)=O (centres unmarked) [compound 11107, 1-(3-(4-(5-((5,5-dioxido-11-oxo-10, 11-dihydrodibenzo [b, f] [1, 4]thiazepine-8-carboxamido)methyl)thiazol-2-yl)phenoxy)propyl) pyrrolidine-3-carboxylic acid]	6.4	96	
